In this assay the test system is M17-TAU P301L cells. Nature of the assay: TAU cytotoxicity assay: LDH leakage of retinoic acid incubated M17-TAU P301L cells. It is filed as cell-based, human. The settings on record: Homo sapiens, 168 h, reduction of LDH activity of retinoic acid incubated M17-TAU P301L cells, 7 days. From the text:
A TAU expression plasmid was constructed by sub-cloning the cDNA of human TAU-P301 L (encoding for TAU with proline 301 substituted by a leucine residue) into mammalian expression vector pcDNA3.1 resulting in plasmid pcDNA3.1-TAU P301L. Plasmids pcDNA3.1 and pcDNA3.1-TAU P301L were transfected to human neuroblastoma cells ([…]; ATCC No. CRL-2267) and independent clonal lines with the plasmids stably integrated into the genome were selected. […] Expression of the TAU P301L genes in the cell lines was confirmed by Western analysis.
In degenerated or dead cells lactate dehydrogenase (LDH) is leaked out of the cells into the extracellular environment due to a loss of plasma-membrane integrity. This principle was used to determine cytotoxicity by quantifying the level of leaked LDH into the growth medium.
The detailed method for determining TAU cytotoxicity was as follows: From appropriate precultures of M17-3.1 and M17-TAU(P301L) cells were seeded at 2500 cells/cm2 in Optimem Reduced Serum without phenol red (Gibco, Cat. 31985-047) supplemented with 1% fetal calf serum, 1 mM sodium pyruvate, 1× non-essential amino acids, 500 μg/ml G418 0.5× antibiotic/antimycotic. After 3 h of incubation at 37° C./5% CO2 1 volume of Optimem Reduced Serum (same as described above; except without fetal calf serum) supplemented with 2.5 μM retinoic acid (RA) was added. The cells were further incubated for 7 days. Subsequently, LDH activity was determined using Promega Cytotox 96 Non-Radioactive cytotoxicity assay, (Cat. G1780) according the supplier's instructions.
The M17-TAU P301L cell line made it possible to assess the ability of novel compounds to counteract TAU cytotoxicity. […] These measurements were used to calculate EC50 values of table 2.
Exemplary compounds of the present invention are shown in table 2, with their chemical name and their EC50 value (expressed in nM) as determined from example 196 in the Tau-induced toxicity experiment.

On to `O=C(NCCc1c[nH]c2ccc(Cl)cc12)c1cc(-c2ccccc2)on1` [Example D36, N-(2-(5-chloro-1H-indol-3-yl)ethyl)-5-phenylisoxazole-3-carboxamide], for which the concentration for a half-maximal effect (EC50) turned out to be 61 nM. The molecule `Cc1ccc(-c2nc(C)c(C(=O)NCCc3c[nH]c4ccc(F)cc34)s2)cc1` [Example D37, N-(2-(5-fluoro-1H-indol-3-yl)ethyl)-4-methyl-2-p-tolylthiazole-5-carboxamide] had an EC50 of 61 nM. For the molecule `O=C(NCCc1c[nH]c2ccc(Cl)cc12)c1cc(-c2cccc3c2OCCO3)on1` [Example D38, N-(2-(5-chloro-1H-indol-3-yl)ethyl)-5-(2,3-dihydrobenzo[b][1,4]dioxin-5-yl)isoxazole-3-carboxamide], the EC50 stood at 80 nM. On to `Cc1nc(NCCc2ccccc2)sc1C(=O)NCCc1c[nH]c2ccccc12` [Example D39, N-(2-(1H-indol-3-yl)ethyl)-4-methyl-2-(phenethylamino)thiazole-5-carboxamide], for which a half-maximal response (EC50) required 87 nM. In turn, `CCc1ccc(N2CCC(C(=O)NCCc3c[nH]c4ccc(Cl)cc34)C2=O)cc1` (centres unmarked) [Example D40, N-(2-(5-chloro-1H-indol-3-yl)ethyl)-1-(4-ethylphenyl)-2-oxopyrrolidine-3-carboxamide] registered an EC50 of 91 nM. The value for `O=C(NCCc1c[nH]c2ccc(Cl)cc12)c1cc(Cc2ccncc2)on1` [Example D41, N-(2-(5-chloro-1H-indol-3-yl)ethyl)-5-(pyridin-4-ylmethyl)isoxazole-3-carboxamide] was 91 nM. `O=C(NCCc1c[nH]c2ccc(Cl)cc12)c1cc(Cn2cccn2)on1` [Example D42, 5-((1H-pyrazol-1-yl)methyl)-N-(2-(5-chloro-1H-indol-3-yl)ethyl)isoxazole-3-carboxamide] showed an EC50 of 92 nM. The molecule `O=C(NCCc1c[nH]c2ccc(Cl)cc12)C1=NOC(Cc2ccccc2)C1` (centres unmarked) [Example D43, 5-benzyl-N-(2-(5-chloro-1H-indol-3-yl)ethyl)-4,5-dihydroisoxazole-3-carboxamide] had a concentration for a half-maximal effect (EC50) of 94 nM. The molecule `O=C(NCCc1c[nH]c2ccc(Cl)cc12)c1cn(C2CCCCC2)nn1` [Example D44, N-(2-(5-chloro-1H-indol-3-yl)ethyl)-1-cyclohexyl-1H-1,2,3-triazole-4-carboxamide] displayed an EC50 of 108 nM.

Molecule `Cc1ccc(-c2nc(C)c(C(=O)NCCc3c[nH]c4ccc(Cl)cc34)s2)cc1` [Example D45, N-(2-(5-chloro-1H-indol-3-yl)ethyl)-4-methyl-2-p-tolylthiazole-5-carboxamide] came in with a concentration for a half-maximal effect (EC50) of 113 nM. `Cc1nc(-c2ccccc2)sc1C(=O)NCCc1c[nH]c2ccc(Cl)cc12` [Example D46, N-(2-(5-chloro-1H-indol-3-yl)ethyl)-4-methyl-2-phenylthiazole-5-carboxamide] gave an EC50 of 123 nM. Molecule `O=C(NCCc1c[nH]c2cc(F)ccc12)c1cc(Cc2cccc(F)c2)on1` [Example D47, N-(2-(6-fluoro-1H-indol-3-yl)ethyl)-5-(3-fluorobenzyl)isoxazole-3-carboxamide] showed an EC50 of 132 nM. The molecule `CCc1ccc(N2CCC(C(=O)NCCc3c[nH]c4ccc(C)cc34)C2=O)cc1` (centres unmarked) [Example D48, 1-(4-ethylphenyl)-N-(2-(5-methyl-1H-indol-3-yl)ethyl)-2-oxopyrrolidine-3-carboxamide] had an EC50 of 138 nM. In the case of `COc1ccc(-c2cc(C(=O)NCCc3c[nH]c4ccc(Cl)cc34)no2)cc1` [Example D49, N-(2-(5-chloro-1H-indol-3-yl)ethyl)-5-(4-methoxyphenyl)isoxazole-3-carboxamide], the half-maximal effective concentration (EC50) was found to be 140 nM. Regarding `O=C(NCCc1c[nH]c2ccc(Cl)cc12)C1CC(c2ccccc2)=NO1` (centres unmarked) [Example D50, N-(2-(5-chloro-1H-indol-3-yl)ethyl)-3-phenyl-4,5-dihydroisoxazole-5-carboxamide], the EC50 turned out to be 151 nM. As to `Cn1cc(CCNC(=O)c2cc(Cc3cccc(F)c3)on2)c2cc(Cl)ccc21` [Example D51, N-(2-(5-chloro-1-methyl-1H-indol-3-yl)ethyl)-5-(3-fluorobenzyl)isoxazole-3-carboxamide], the EC50 was 157 nM. For the molecule `O=C(NCCc1c[nH]c2ccc(Cl)cc12)c1nnc(-c2ccccc2)o1` [Example D52, N-(2-(5-chloro-1H-indol-3-yl)ethyl)-5-phenyl-1,3,4-oxadiazole-2-carboxamide], a half-maximal effect (EC50) was put at 158 nM. As to `O=C(NCCc1c[nH]c2ccc(Cl)cc12)c1ncc(-c2ccccc2)o1` [Example D53, N-(2-(5-chloro-1H-indol-3-yl)ethyl)-5-phenyloxazole-2-carboxamide], the EC50 worked out at 171 nM. The value for `O=C(NCCc1c[nH]c2ccc(Cl)cc12)c1cn(Cc2ccccc2)nn1` [Example D54, 1-benzyl-N-(2-(5-chloro-1H-indol-3-yl)ethyl)-1H-1,2,3-triazole-4-carboxamide] was 173 nM; that for `O=C(NCCc1c[nH]c2ccc(Cl)cc12)C1=NOC(c2ccccc2)C1` (centres unmarked) [Example D55, N-(2-(5-chloro-1H-indol-3-yl)ethyl)-5-phenyl-4,5-dihydroisoxazole-3-carboxamide] was 189 nM; that for `O=C(NCCc1c[nH]c2ccc(Cl)cc12)c1cc(-c2ccc(Cl)cc2)on1` [Example D56, N-(2-(5-chloro-1H-indol-3-yl)ethyl)-5-(4-chlorophenyl)isoxazole-3-carboxamide] was 190 nM. In turn, `Cc1ccc(-c2cc(C(=O)NCCc3c[nH]c4ccc(Cl)cc34)no2)cc1` [Example D57, N-(2-(5-chloro-1H-indol-3-yl)ethyl)-5-p-tolylisoxazole-3-carboxamide] displayed a half-maximal effective concentration (EC50) of 195 nM. As for `O=C(NCCc1c[nH]c2ccc(Cl)cc12)C1=N[C@H](C2CCCCC2)CO1` [Example D58, (R)-N-(2-(5-chloro-1H-indol-3-yl)ethyl)-4-cyclohexyl-4,5-dihydrooxazole-2-carboxamide], the EC50 was found to be 202 nM. Consider `O=C(NCCc1c[nH]c2ccc(Cl)cc12)C1=N[C@@H](C2CCCCC2)CO1` [Example D59, (S)-N-(2-(5-chloro-1H-indol-3-yl)ethyl)-4-cyclohexyl-4,5-dihydrooxazole-2-carboxamide], for which it took 211 nM to reach a half-maximal effect (EC50). The value for `O=C(NCCc1c[nH]c2ccc(Cl)cc12)c1nnc(Cc2ccccc2)o1` [Example D60, 5-benzyl-N-(2-(5-chloro-1H-indol-3-yl)ethyl)-1,3,4-oxadiazole-2-carboxamide] was 213 nM; that for `O=C(NCCc1c[nH]c2ccc(Cl)cc12)c1cc(CN2CCCC2)on1` [Example D61, N-(2-(5-chloro-1H-indol-3-yl)ethyl)-5-(pyrrolidin-1-ylmethyl)isoxazole-3-carboxamide] was 227 nM. With `Cc1oc(-c2ccccc2)nc1C(=O)NCCc1c[nH]c2ccc(Cl)cc12` [Example D62, N-(2-(5-chloro-1H-indol-3-yl)ethyl)-5-methyl-2-phenyloxazole-4-carboxamide], the 50% effective concentration (EC50) was 237 nM.

`O=C(NCCc1c[nH]c2ccc(Cl)cc12)N1CCC(c2ccccc2)C1` (centres unmarked) [Example D63, N-(2-(5-chloro-1H-indol-3-yl)ethyl)-3-phenylpyrrolidine-1-carboxamide] returned a half-maximal effective concentration (EC50) of 304 nM. With `O=C(NCCc1c[nH]c2ccc(Cl)cc12)C1CCN(c2ccccc2)C1=O` (centres unmarked) [Example D64, N-(2-(5-chloro-1H-indol-3-yl)ethyl)-2-oxo-1-phenylpyrrolidine-3-carboxamide], the 50% effective concentration (EC50) was determined as 313 nM.

Molecule `O=C(NCCc1c[nH]c2ccc(Cl)cc12)C1CCN(c2cccc(F)c2)C1=O` (centres unmarked) [Example D65, N-(2-(5-chloro-1H-indol-3-yl)ethyl)-1-(3-fluorophenyl)-2-oxopyrrolidine-3-carboxamide] showed an EC50 of 321 nM.

`CCNCc1cc(C(=O)NCCc2c[nH]c3ccc(Cl)cc23)no1` [Example D66, N-(2-(5-chloro-1H-indol-3-yl)ethyl)-5-((ethylamino)methyl)isoxazole-3-carboxamide]: the midpoint of the response, the EC50, lay at 327 nM. The value for `O=C(NCCc1c[nH]c2ccc(Cl)cc12)c1csc(-c2ccccc2)n1` [Example D67, N-(2-(5-chloro-1H-indol-3-yl)ethyl)-2-phenylthiazole-4-carboxamide] was 333 nM; that for `O=C(NCCc1c[nH]c2ccc(Cl)cc12)c1cc(-c2ccc(Cl)cc2)oc1C(F)(F)F` [Example D68, N-(2-(5-chloro-1H-indol-3-yl)ethyl)-5-(4-chlorophenyl)-2-(trifluoromethyl)furan-3-carboxamide] was 337 nM. For the molecule `O=C(NCCc1c[nH]c2ccc(Cl)cc12)N1CCN(Cc2ccccc2)C1` [Example D69, 3-benzyl-N-(2-(5-chloro-1H-indol-3-yl)ethyl)imidazolidine-1-carboxamide], the half-maximal effective concentration (EC50) stood at 357 nM. As to `COc1ccc(N2CCC(C(=O)NCCc3c[nH]c4ccc(Cl)cc34)C2=O)cc1` (centres unmarked) [Example D70, N-(2-(5-chloro-1H-indol-3-yl)ethyl)-1-(4-methoxyphenyl)-2-oxopyrrolidine-3-carboxamide], the EC50 turned out to be 408 nM.

For the origin of these results see patent US8618138B2, “Indole amide derivatives and related compounds for use in the treatment of neurodegenerative diseases” (Katholieke Universiteit Leuven, K.U. Leuven R&D, priority 2009, dated 2013).
